{
  "source": "patent US20240057598A1",
  "about": "“USE OF 2-AMINO-3-METHYLHEXANOIC ACID AS PLANT IMMUNITY INDUCER” (NANJING AGRICULTURAL UNIVERSITY, priority 2020, published 2024)",
  "key": {"Brevibacterium helvolum": {"system": "Brevibacterium helvolum", "settings": "cited from earlier work"}, "[1]": {"system": "tea \"Baiye 1\" cutting seedlings", "assay": "Induced resistance of tea to low temperature stress", "format": "in vivo", "settings": "for PIABS / Cold injury index: tea seedlings, −4° C. for 24 h; for Cold injury index: 3 days recovery", "procedure": "The tea trees tested were “Baiye 1” cutting seedlings. Tea seedlings with relatively consistent growth were transplanted into a plastic pot with a diameter of 18 cm and placed in a greenhouse at a temperature of 25° C. and a humidity of 60%-70% for adaptive growth for about a week. The concentrations of 0, 1, 10, 100 and 1,000 nM were set in the experiment, and 0.02% Tween 20 was added as a surfactant. The spray treatment method was the same as that of the ryegrass in Example 4, and the low temperature stress treatment was conducted at −4° C. for 24 h. After the stress was completed, the tea seedlings were taken out and treated in the dark at room temperature for 30 min, and then the chlorophyll fluorescence parameters of the top leaves of the tea seedlings was determined using the plant efficiency analyzer Handy PEA. Then, the tea seedlings were placed in a 25° C. greenhouse to recover for 3 days, and the cold injury status was observed, counted and graded."}, "tomato": {"system": "tomato", "assay": "Induced resistance of tomato to high temperature stress", "format": "in vivo", "procedure": "2-amino-3-methylhexanoic acid was dissolved in distilled water and diluted with distilled water into solutions of 1 nM, 10 nM, 100 nM and 1,000 nM by gradient. A blank control was additionally set, and 0.02% Tween 20 was added as a surfactant. 4 groups of repetitions were set for each concentration, and a normal temperature blank control was set at the same time. Ryegrass seeds were weighed according to 0.8 g per pot, sowed in a pot with a diameter of 8.5 cm, and planted in a greenhouse at a temperature of 25° C., a humidity of 60%-70%, and a light intensity of 200 μmolm^−2s^−1 (12 h light/12 h dark). On the 8th day of the seedling stage, the ryegrass was sprayed with the 2-amino-3-methylhexanoic acid solutions on the leaves twice in 24 h. 24 h after the second treatment, the plants were transferred to a light incubator at a temperature of 45° C. for conducting high temperature stress treatment for 12 h, and then the plants were taken out and transferred to a greenhouse at a temperature of 25° C. for 7 days of recovery. The injured conditions of the plants were observed and counted, and the heat injury grade was calculated. […] After the counting, the fresh weight of the aboveground part of the plant was weighed, and then the aboveground part was baked in an 85° C. oven for 48 h to determine the dry weight.\nTomato seeds were sowed in small pots, and three tomato seedlings with the same growth condition were transplanted into one pot after emergence. The planting method and conditions were the same as above. When the tomato grew for 18 days in the seedling stage, the experiment was conducted. High temperature stress was conducted at 42° C. for 9 h, and the treatment method and subsequent statistical indexes were the same as those of the above."}, "[2]": {"system": "tea \"Baiye 1\" cutting seedlings", "assay": "Effect on amino acid content of tea leaves at normal temperature", "format": "in vivo", "parameters": "Amino acid content of tea leaves: unit not given here", "settings": "10 nM, room temperature", "procedure": "At normal temperature, the effect of 2-amino-3-methylhexanoic acid on tea quality was determined using “Baiye 1” cutting seedlings as the tea trees tested. Tea seedlings with relatively consistent growth were transplanted into a plastic pot with a diameter of 18 cm and placed in a greenhouse at a temperature of 25° C. and a humidity of 60%-70% for adaptive growth for about a week. Two concentrations of 0 and 10 nM were set in the experiment, and 0.02% Tween 20 was added as a surfactant. 1 week after transplanting, the stems and leaves of the tea seedlings were sprayed once every 24 h, twice in total. After spray, the tea leaves were placed in a greenhouse at 25° C., and samples were taken on the 1st, 3rd, 5th and 7th days to determine the total amino acid content of one leaf and one bud at the top of tea leaves."}, "\"Sikang 1\" cotton": {"system": "\"Sikang 1\" cotton", "assay": "Induced resistance of cotton to salt stress", "format": "in vivo", "settings": "100 mM NaCl, three days", "procedure": "The experimental material was “Sikang 1” cotton, which was cultured in water in a 500 mL plastic cup, and a ½ Hoagland nutrient solution was changed every three days. When the cotton seedling grew until the second true leaf fully unfolded, the leaf surface was sprayed with 2-amino-3-methylhexanoic acid solutions. The concentrations of 0, 1, 10, 100 and 1,000 nM were set in the experiment, and 0.02% Tween 20 was added as a surfactant. The spraying was repeated once after 24 h and conducted twice in total. On the second day after the treatment, NaCl was added to the ½ Hoagland nutrient solution to a final concentration of 100 mM to conduct salt stress treatment. There were three repetitions in each treatment group. Rehydration treatment was conducted after three days of salt stress, the salt injury symptoms of cotton were observed, and the salt injury index was calculated by a formula as follows: […]"}, "P. fluorescens": {"system": "P. fluorescens", "settings": "cited from earlier work"}, "Bacillus subtilis": {"system": "Bacillus subtilis", "settings": "cited from earlier work"}, "[3]": {"settings": "1,000 nM, tea leaves, low temperature stress"}, "[4]": {"settings": "10 nM, 42° C. 9 h, 7 days recovery"}, "[5]": {"settings": "100 nM, 42° C. 9 h, 7 days recovery"}, "[6]": {"settings": "1,000 nM, 42° C. 9 h, 7 days recovery"}},
  "data": [
    {"smiles": "CCCC(C)C(N)C(=O)O", "note": "(centres unmarked) [2-amino-3-methylhexanoic acid]", "values": [
      {"measurement": "Inhibitory effect", "setting": "Brevibacterium helvolum", "result": "no inhibitory effect"},
      {"measurement": "PIABS", "setting": "[1]; 1 nM", "result": "17.69 ± 2.12", "unit": "b"},
      {"measurement": "Cold injury index", "setting": "[1]; 1 nM", "result": 45, "unit": "%"},
      {"measurement": "PIABS", "setting": "[1]; 10 nM", "result": "21.30 ± 1.73", "unit": "ab"},
      {"measurement": "Cold injury index", "setting": "[1]; 10 nM", "result": 30, "unit": "%"},
      {"measurement": "PIABS", "setting": "[1]; 100 nM", "result": "27.01 ± 3.27", "unit": "a"},
      {"measurement": "Cold injury index", "setting": "[1]; 100 nM", "result": 15, "unit": "%"},
      {"measurement": "Decrease of cold injury index", "setting": "[1]; [3]", "result": 65, "unit": "%"},
      {"measurement": "Increase of PIABS", "setting": "[1]; [3]", "result": 313, "unit": "%"},
      {"measurement": "PIABS", "setting": "[1]; 1,000 nM", "result": "30.42 ± 3.51", "unit": "a"},
      {"measurement": "Cold injury index", "setting": "[1]; 1,000 nM", "result": 10, "unit": "%"},
      {"measurement": "Optimum concentration inducing resistance to high temperature stress", "setting": "tomato", "result": "1,000 nM"},
      {"measurement": "Dry weight of overground part", "setting": "tomato; [4]", "result": "0.05 ± 0.01", "unit": "b g"},
      {"measurement": "Heat injury index", "setting": "tomato; [4]", "result": 95},
      {"measurement": "Dry weight of overground part", "setting": "tomato; [5]", "result": "0.06 ± 0.02", "unit": "g·h"},
      {"measurement": "Fresh weight of overground part", "setting": "tomato; [5]", "result": "0.61 ± 0.16", "unit": "abc g"},
      {"measurement": "Heat injury index", "setting": "tomato; [5]", "result": 90},
      {"measurement": "Dry weight of overground part", "setting": "tomato; [6]", "result": "0.08 ± 0.003", "unit": "ab g"},
      {"measurement": "Heat injury index", "setting": "tomato; [6]", "result": 60},
      {"measurement": "Increase of amino acid content compared with control", "setting": "[2]; 3rd day", "result": 14, "unit": "%"},
      {"measurement": "Increase of amino acid content compared with control", "setting": "[2]; 5th day", "result": 26, "unit": "%"},
      {"measurement": "Amino acid content of tea leaves", "setting": "[2]; day 1", "result": 2.13},
      {"measurement": "Amino acid content of tea leaves", "setting": "[2]; day 3", "result": 2.44},
      {"measurement": "Amino acid content of tea leaves", "setting": "[2]; day 5", "result": 2.69},
      {"measurement": "Amino acid content of tea leaves", "setting": "[2]; day 7", "result": 2.08},
      {"measurement": "Death rate", "setting": "\"Sikang 1\" cotton; 1 nM", "result": 50, "unit": "%"},
      {"measurement": "Salt injury index", "setting": "\"Sikang 1\" cotton; 1 nM", "result": 67, "unit": "%"},
      {"measurement": "Death rate", "setting": "\"Sikang 1\" cotton; 10 nM", "result": 50, "unit": "%"},
      {"measurement": "Salt injury index", "setting": "\"Sikang 1\" cotton; 10 nM", "result": 63, "unit": "%"},
      {"measurement": "Death rate", "setting": "\"Sikang 1\" cotton; 100 nM", "result": 33, "unit": "%"},
      {"measurement": "Salt injury index", "setting": "\"Sikang 1\" cotton; 100 nM", "result": 56, "unit": "%"},
      {"measurement": "Death rate", "setting": "\"Sikang 1\" cotton; 1,000 nM", "result": 33, "unit": "%"},
      {"measurement": "Salt injury index", "setting": "\"Sikang 1\" cotton; 1,000 nM", "result": 47, "unit": "%"},
      {"measurement": "Inhibitory effect", "setting": "P. fluorescens", "result": "no inhibitory effect"},
      {"measurement": "Inhibitory effect", "setting": "Bacillus subtilis", "result": "obvious inhibitory effect"}
    ]}
  ]
}
